These are literature values, as cited in patent US12533348B2, “Ferroportin-inhibitors for the use in the treatment of transfusion-dependent beta-thalassemia (TDT)” (Vifor (International) AG, priority 2019, dated 2026).

The test system of the data set is guinea pigs. Particulars: intravenous administration, cited from earlier work.

For `O=C(NCc1ncccc1F)c1csc(CCNCc2nc3ccccc3[nH]2)n1` [VIT-2653], where the note is “guinea pigs”, the “NTBI and Hb levels following exchange transfusion” value is “significantly improved”; the “total iron in kidneys following transfusion” value is given as “can be reduced”. The “occurrence of changes in plasma creatinine >0.3 mg/dL (indicator of early AKI)” value (transfused guinea pigs) is “significantly reduced”.
